In patent publication US20100298141A1, “SUBSTITUTED PYRIDINE N-OXIDE HERBICIDES” (E. I. DU PONT DE NEMOURS AND COMPANY, priority 2007, published 2010):

Experiments:
Conditions in all cases: scale 0 to 100
eastern black nightshade = assay: Test G preemergence test; type: in vivo, Solanum ptycanthum
goosegrass = assay: Test G preemergence test; type: in vivo, Eleusine indica
lambsquarters = assay: Test G preemergence test; type: in vivo, Chenopodium album
yellow foxtail = assay: Test G preemergence test; type: in vivo, Pennisetum glaucum
blackgrass = assay: Test D preemergence test; type: in vivo, Alopecurus myosuroides
Description: (§1) Seeds of plant species selected from annual bluegrass (Poa annua), blackgrass (Alopecurus myosuroides), downy bromegrass (Bromus tectorum), field violet (Viola arvensis), green foxtail (Setaria viridis), Italian ryegrass (Lolium multiflorum), littleseed canarygrass (Phalaris minor), spring wheat (Triticum aestivum), wild oat (Avena fatua), […]), winter barley (Hordeum vulgare), and winter wheat (Triticum aestivum) were planted and treated preemergence with test chemicals formulated in a non-phytotoxic solvent mixture which included a surfactant. […] A dash (-) response means no test result.

soybean = assay: Test G preemergence test; type: in vivo, Glycine max
woolly cupgrass = assay: Test G preemergence test; type: in vivo, Eriochloa villosa
yellow nutsedge = assay: Test G preemergence test; type: in vivo, Cyperus esculentus
annual bluegrass = assay: Test D preemergence test; type: in vivo, Poa annua
Description: as §1

wild oat = assay: Test D preemergence test; type: in vivo, Avena fatua
Description: as §1

field violet = assay: Test D preemergence test; type: in vivo, Viola arvensis
Description: as §1

broadleaf signalgrass = assay: Test G preemergence test; type: in vivo, Brachiaria platyphylla
corn = assay: Test G preemergence test; type: in vivo, Zea mays
sorghum = assay: Test G preemergence test; type: in vivo, Sorghum vulgare
tall waterhemp = assay: Test G preemergence test; type: in vivo, Amaranthus tuberculatos
cotton = assay: Test G preemergence test; type: in vivo, Gossypium hirsutum
itchgrass = assay: Test G preemergence test; type: in vivo, Rottboellia cochinchinensis
littleseed canarygrass = assay: Test D preemergence test; type: in vivo, Phalaris minor
Description: as §1

large crabgrass = assay: Test G preemergence test; type: in vivo, Digitaria sanguinalis
winter wheat = assay: Test D preemergence test; type: in vivo, Triticum aestivum
Description: as §1

spring wheat = assay: Test D preemergence test; type: in vivo, Triticum aestivum
Description: as §1

Italian ryegrass = assay: Test D preemergence test; type: in vivo, Lolium multiflorum
Description: as §1

Cc1cc[n+]([O-])c(S(=O)(=O)C(Cl)c2c(C(F)(F)F)nn(C)c2Cl)c1 (racemic) [Compound 22]
0: Plant response rating, Nightshade (eastern black nightshade; 31 g ai/ha) | Plant response rating, Nightshade (eastern black nightshade; 62 g ai/ha) | Plant response rating, Nightshade (eastern black nightshade; 125 g ai/ha) | Plant response rating, Lambsquarters (lambsquarters; 31 g ai/ha) | Plant response rating, Lambsquarters (lambsquarters; 62 g ai/ha) | Plant response rating, Lambsquarters (lambsquarters; 125 g ai/ha) | Plant response rating, Foxtail, Yellow (yellow foxtail; 31 g ai/ha) | Plant response rating, Soybean (soybean; 31 g ai/ha) | Plant response rating, Soybean (soybean; 62 g ai/ha) | Plant response rating, Soybean (soybean; 125 g ai/ha) | Plant response rating, Soybean (soybean; 250 g ai/ha) | Plant response rating, Cupgrass, Woolly (woolly cupgrass; 31 g ai/ha) | Plant response rating, Nutsedge, Yellow (yellow nutsedge; 31 g ai/ha) | Plant response rating, Nutsedge, Yellow (yellow nutsedge; 62 g ai/ha) | Plant response rating, Nutsedge, Yellow (yellow nutsedge; 125 g ai/ha) | Plant response rating, Oat, Wild (wild oat; 31 g ai/ha) | Plant response rating, Oat, Wild (wild oat; 62 g ai/ha) | Plant response rating, Oat, Wild (wild oat; 125 g ai/ha) | Plant response rating, Field Violet (field violet; 31 g ai/ha) | Plant response rating, Signalgrass (broadleaf signalgrass; 31 g ai/ha) | Plant response rating, Corn (corn; 31 g ai/ha) | Plant response rating, Corn (corn; 62 g ai/ha) | Plant response rating, Corn (corn; 125 g ai/ha) | Plant response rating, Corn (corn; 250 g ai/ha) | Plant response rating, Sorghum (sorghum; 31 g ai/ha) | Plant response rating, Sorghum (sorghum; 62 g ai/ha) | Plant response rating, Sorghum (sorghum; 125 g ai/ha) | Plant response rating, Waterhemp (tall waterhemp; 31 g ai/ha) | Plant response rating, Cotton (cotton; 31 g ai/ha) | Plant response rating, Cotton (cotton; 62 g ai/ha) | Plant response rating, Cotton (cotton; 125 g ai/ha) | Plant response rating, Cotton (cotton; 250 g ai/ha) | Plant response rating, Itchgrass (itchgrass; 31 g ai/ha) | Plant response rating, Canarygrass (littleseed canarygrass; 31 g ai/ha) | Plant response rating, Wheat, Winter (winter wheat; 31 g ai/ha) | Plant response rating, Wheat, Winter (winter wheat; 62 g ai/ha) | Plant response rating, Wheat, Winter (winter wheat; 125 g ai/ha) | Plant response rating, Wheat, Spring (spring wheat; 31 g ai/ha) | Plant response rating, Wheat, Spring (spring wheat; 62 g ai/ha) | Plant response rating, Wheat, Spring (spring wheat; 125 g ai/ha) | Plant response rating, Ryegrass, Italian (Italian ryegrass; 31 g ai/ha)
35: Plant response rating, Foxtail, Yellow (yellow foxtail; 62 g ai/ha) | Plant response rating, Ryegrass, Italian (Italian ryegrass; 125 g ai/ha)
70: Plant response rating, Cupgrass, Woolly (woolly cupgrass; 125 g ai/ha)
15: Plant response rating, Oat, Wild (wild oat; 250 g ai/ha) | Plant response rating, Itchgrass (itchgrass; 62 g ai/ha) | Plant response rating, Canarygrass (littleseed canarygrass; 62 g ai/ha) | Plant response rating, Wheat, Spring (spring wheat; 250 g ai/ha)
65: Plant response rating, Bluegrass (annual bluegrass; 62 g ai/ha) | Plant response rating, Signalgrass (broadleaf signalgrass; 125 g ai/ha)
100: Plant response rating, Goosegrass (goosegrass; 31 g ai/ha) | Plant response rating, Goosegrass (goosegrass; 62 g ai/ha) | Plant response rating, Goosegrass (goosegrass; 125 g ai/ha) | Plant response rating, Goosegrass (goosegrass; 250 g ai/ha) | Plant response rating, Foxtail, Yellow (yellow foxtail; 125 g ai/ha) | Plant response rating, Foxtail, Yellow (yellow foxtail; 250 g ai/ha) | Plant response rating, Bluegrass (annual bluegrass; 250 g ai/ha) | Plant response rating, Waterhemp (tall waterhemp; 250 g ai/ha) | Plant response rating, Canarygrass (littleseed canarygrass; 250 g ai/ha) | Plant response rating, Crabgrass, Large (large crabgrass; 250 g ai/ha)
45: Plant response rating, Nightshade (eastern black nightshade; 250 g ai/ha) | Plant response rating, Nutsedge, Yellow (yellow nutsedge; 250 g ai/ha) | Plant response rating, Field Violet (field violet; 250 g ai/ha)
40: Plant response rating, Blackgrass (blackgrass; 31 g ai/ha) | Plant response rating, Blackgrass (blackgrass; 62 g ai/ha) | Plant response rating, Signalgrass (broadleaf signalgrass; 62 g ai/ha) | Plant response rating, Itchgrass (itchgrass; 250 g ai/ha)
60: Plant response rating, Cupgrass, Woolly (woolly cupgrass; 62 g ai/ha) | Plant response rating, Crabgrass, Large (large crabgrass; 31 g ai/ha) | Plant response rating, Crabgrass, Large (large crabgrass; 62 g ai/ha)
80: Plant response rating, Lambsquarters (lambsquarters; 250 g ai/ha) | Plant response rating, Cupgrass, Woolly (woolly cupgrass; 250 g ai/ha)
95: Plant response rating, Blackgrass (blackgrass; 250 g ai/ha) | Plant response rating, Bluegrass (annual bluegrass; 125 g ai/ha) | Plant response rating, Sorghum (sorghum; 250 g ai/ha) | Plant response rating, Crabgrass, Large (large crabgrass; 125 g ai/ha)
55: Plant response rating, Ryegrass, Italian (Italian ryegrass; 250 g ai/ha)
75: Plant response rating, Signalgrass (broadleaf signalgrass; 250 g ai/ha) | Plant response rating, Canarygrass (littleseed canarygrass; 125 g ai/ha)
20: Plant response rating, Bluegrass (annual bluegrass; 31 g ai/ha) | Plant response rating, Waterhemp (tall waterhemp; 62 g ai/ha) | Plant response rating, Itchgrass (itchgrass; 125 g ai/ha)
10: Plant response rating, Wheat, Winter (winter wheat; 250 g ai/ha)
30: Plant response rating, Field Violet (field violet; 62 g ai/ha) | Plant response rating, Field Violet (field violet; 125 g ai/ha) | Plant response rating, Waterhemp (tall waterhemp; 125 g ai/ha) | Plant response rating, Ryegrass, Italian (Italian ryegrass; 62 g ai/ha)
